The values below are quoted from earlier work in patent US4663309A, “Novel peptide hormones with calcitonin-like activity” (University Patents, Inc., priority 1985, dated 1987).

The conditions of data set [1]: literature value; cited from earlier work.
The target in data set [2] is T1, calcitonin receptors (brain particulate fraction) (Rattus norvegicus, UniProt P32214).
T1 sequence (P32214 25-516): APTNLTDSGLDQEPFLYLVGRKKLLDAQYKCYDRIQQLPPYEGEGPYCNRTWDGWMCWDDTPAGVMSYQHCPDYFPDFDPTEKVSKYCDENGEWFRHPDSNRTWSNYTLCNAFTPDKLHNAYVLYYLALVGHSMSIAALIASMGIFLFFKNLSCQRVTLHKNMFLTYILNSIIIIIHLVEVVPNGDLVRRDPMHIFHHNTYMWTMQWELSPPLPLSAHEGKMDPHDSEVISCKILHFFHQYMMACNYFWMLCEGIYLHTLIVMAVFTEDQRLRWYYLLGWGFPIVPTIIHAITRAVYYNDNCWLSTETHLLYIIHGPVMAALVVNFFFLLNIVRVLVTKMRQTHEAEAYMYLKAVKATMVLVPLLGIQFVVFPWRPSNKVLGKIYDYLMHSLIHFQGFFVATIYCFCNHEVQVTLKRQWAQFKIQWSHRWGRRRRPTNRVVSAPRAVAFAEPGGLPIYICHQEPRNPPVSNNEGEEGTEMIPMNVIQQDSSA
Also noted: from tissue. The conditions noted are these: rat brain homogenates; literature value; read-out: IC50, [125I]-SCT-I binding to rat brain, value found by Nakamuta et al.; cited from earlier work.

The term IC50 denotes the concentration that inhibits the measured activity by half. On to porcine calcitonin [PCT], for which, in data set [1], the “α-helicity in 50% 2-chloroethanol (Brewer and Edelhoch)” value is given as 50%. The IC50 in data set [2] is 17 nM.
